Data from US8299056B2 (Signal Pharmaceuticals, LLC, priority 2008, dated 2012).
pIC50: −log10 of the molar value. Like-named read-outs stand apart in the source and are kept apart here.

Target: T1, Syk (Homo sapiens, UniProt P43405)
T1 construct: purchased Carna Biosciences
Experiment: Syk HTRF assay
Type: biochemical
Outline: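 Read-out is the 665 nm/615 nm time-resolved fluorescence ratio after EDTA stop and Eu-anti-phosphotyrosine plus streptavidin-DyLight 647 detection. Reaction ran 1 h at room temperature with start mix of 87.5 μM ATP and 80 nM substrate peptide in pH 7.6 HEPES/MgCl2 buffer.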

[1] = read-out: Activity Level (Syk HTRF assay IC50)
[2] = IC50 activity level, read-out: Activity Level
[3] = activity levels A-D, read-out: Activity Level (IC50 in the Syk HTRF assay)

pIC50 [3] | Compound | other results
6.60 to 11.30 | Cn1ncc2ccc(Nc3nc4cccc(N[C@H]5CC[C@@H](O)CC5)n4n3)cc21 [Example 364, cis-4-(2-(1-methyl-1H-indazol-6-ylamino)-[1,2,4]triazolo[1,5-a]pyridin-5-ylamino)cyclohexanol] | –
5.00 to 6.00 | OC[C@H]1CCCC[C@H]1Nc1cccc2nc(Nc3ccc(C(F)(F)F)cc3)nn12 (stereo in doubt) [Example 356, (1S,2R)-(2-(2-(4-(trifluoromethyl)phenylamino)-[1,2,4]triazolo[1,5-a]pyridin-5-ylamino)cyclohexyl)methanol] | –

The next lines start with the molecule.

Compound | pIC50 [3] | other results
CC(=O)Nc1ccc(-c2cccc3nc(Nc4ccccc4)nn23)cc1 [compound 79, N-(4-(2-(phenylamino)-[1,2,4]triazolo[1,5-a]pyridin-5-yl)phenyl)acetamide] | – | pIC50 [1]: 6.30 to 6.60
O[C@@H]1CCC(Nc2cccc3nc(Nc4ccc(C(F)(F)F)cc4)nn23)C1 (stereo in doubt) [Example 420, (1R,3R)-3-(2-(4-(trifluoromethyl)phenylamino)-[1,2,4]triazolo[1,5-a]pyridin-5-ylamino)cyclopentanol] | – | pIC50 [2]: 6.30 to 6.60
Cc1n[nH]c2ncc(Nc3nc4cccc(N[C@H]5CC[C@@H](O)CC5)n4n3)cc12 [Example 541, cis-4-(2-(3-methyl-1H-pyrazolo[3,4-b]pyridin-5-ylamino)-[1,2,4]triazolo[1,5-a]pyridin-5-ylamino)cyclohexanol] | – | pIC50 [2]: 6.60 to 11.30
FC(F)(F)c1ccc(Nc2nc3cccc(OC4CCNCC4)n3n2)cc1 [Example 352, 5-(piperidin-4-yloxy)-N-(4-(trifluoromethyl)phenyl)-[1,2,4]triazolo[1,5-a]pyridin-2-amine] | 5.00 to 6.00 | –
Nc1cccc(-c2cccc3nc(Nc4ccccc4)nn23)c1 [Example 87] | – | pIC50 [1]: 6.60 to 11.30
OC1CN(c2cccc3nc(Nc4ccc(C(F)(F)F)cc4)nn23)C1 [Example 287, 1-(2-(4-(trifluoromethyl)phenylamino)-[1,2,4]triazolo[1,5-a]pyridin-5-yl)azetidin-3-ol] | 6.60 to 11.30 | –
CC1(C)C(=O)Nc2cc(Nc3nc4cccc(N[C@H]5CC[C@](C)(O)CC5)n4n3)ccc21 [Example 162, trans-6-(5-(4-hydroxy-4-methylcyclohexylamino)-[1,2,4]triazolo[1,5-a]pyridin-2-ylamino)-3,3-dimethylindolin-2-one] | – | pIC50 [1]: 6.60 to 11.30
COc1ccc(Nc2nc3cccc(-c4ccc5nc(CO)[nH]c5c4)n3n2)cn1 [Example 280, (6-(2-(6-methoxypyridin-3-ylamino)-[1,2,4]triazolo[1,5-a]pyridin-5-yl)-1H-benzo[d]imidazol-2-yl)methanol] | 6.30 to 6.60 | –
CC1(C)C(=O)Nc2cc(Nc3nc4cccc(Cc5cc[nH]c(=O)c5)n4n3)ccc21 [Example 156, 3,3-dimethyl-6-(5-((2-oxo-1,2-dihydropyridin-4-yl)methyl)-[1,2,4]triazolo[1,5-a]pyridin-2-ylamino)indolin-2-one] | – | pIC50 [1]: 6.60 to 11.30
Oc1ccc2cc(Nc3nc4cccc(-c5ccccc5)n4n3)ccc2n1 [compound 26, 6-(5-phenyl-[1,2,4]triazolo[1,5-a]pyridin-2-ylamino)quinolin-2-ol] | – | pIC50 [1]: 6.60 to 11.30
c1ccc(Nc2nc3cccc(NC4CCCNC4)n3n2)cc1 (stereo in doubt) [Example 497, (R)-N^2-phenyl-N^5-(piperidin-3-yl)-[1,2,4]triazolo[1,5-a]pyridin-2,5-diamine] | – | pIC50 [2]: 5.00 to 6.00
c1ccc(Nc2nc3cccc(NC4CCOCC4)n3n2)cc1 [Example 438, N^2-phenyl-N^5-(tetrahydro-2H-pyran-4-yl)-[1,2,4]triazolo[1,5-a]pyridine-2,5-diamine] | – | pIC50 [2]: 5.00 to 6.00
Cc1cc(C)cc(Nc2nc3cccc(N[C@H]4CC[C@@H](O)CC4)n3n2)c1 [Example 314, cis-4-(2-(3,5-dimethylphenylamino)-[1,2,4]triazolo[1,5-a]pyridin-5-ylamino0)cyclohexaol] | 6.60 to 11.30 | –
OC[C@@H]1CCCN1Cc1cccc2nc(Nc3ccc(C(F)(F)F)cc3)nn12 [Example 271, (S)-(1-((2-(4-(trifluoromethyl)phenylamino)-[1,2,4]triazolo[1,5-a]pyridin-5-yl)methyl)pyrrolidin-2-yl)methanol] | 5.00 to 6.00 | –
CC1C(=O)NCCN1Cc1cccc2nc(Nc3ccc(C(F)(F)F)cc3)nn12 (centres unmarked) [Example 281, 3-methyl-4-((2-(4-(trifluoromethyl)phenylamino)-[1,2,4]triazolo[1,5-a]pyridin-5-yl)methyl)piperazin-2-one] | 6.60 to 11.30 | –
O=C1Cc2ccc(Nc3nc4cccc(N[C@H]5CC[C@@H](O)CC5)n4n3)cc2N1 [Example 238, cis-6-(5-(4-hydroxycyclohexylamino)-[1,2,4]triazolo[1,5-a]pyridin-2-ylamino)indolin-2-one] | 6.60 to 11.30 | –
c1ccc(-c2cccc3nc(Nc4ccc5ncccc5c4)nn23)cc1 [compound 59, N-(5-phenyl-[1,2,4]triazolo[1,5-a]pyridin-2-yl)quinolin-6-amine] | – | pIC50 [1]: 6.60 to 11.30
O=C1NCCCN1Cc1cccc2nc(Nc3ccc(C(F)(F)F)cc3)nn12 [Example 286, 1-((2-(4-(trifluoromethyl)phenylamino)-[1,2,4]triazolo[1,5-a]pyridin-5-yl)methyl)tetrahydropyrimidin-2(1H)-one] | 5.00 to 6.00 | –

Compound | pIC50 [3] | other results
CNC(=O)c1ccc(Nc2nc3cccc(CC(O)C4CCNCC4)n3n2)cc1 (centres unmarked) [Example 306, 4-(5-(2-hydroxy-2-(piperidin-4-yl)ethyl)-[1,2,4]triazolo[1,5-a]pyridin-2-ylamino)-N-methylbenzamide] | 5.00 to 6.00 | –
Cc1ccc(Nc2nc3cccc(N[C@H]4CC[C@@H](O)CC4)n3n2)cc1 [Example 343, cis-4-(2-(p-tolylamino)-[1,2,4]triazolo[1,5-a]pyridin-5-ylamino)cyclohexanol] | 6.60 to 11.30 | –
OC(Cc1cccc2nc(Nc3ccc(F)cc3)nn12)c1ccccc1 (centres unmarked) [Example 431, 2-(2-(4-fluorophenylamino)-[1,2,4]triazolo[1,5-a]pyridin-5-yl)-1-phenylethanol] | – | pIC50 [2]: 6.30 to 6.60
CC(NCc1cccc2nc(Nc3ccc(C(F)(F)F)cc3)nn12)C(N)=O (racemic) [Example 233, (±)-2-((2-(4-(trifluoromethyl)phenylamino)-[1,2,4]triazolo[1,5-a]pyridin-5-yl)methylamino)propanamide] | 6.00 to 6.30 | –
CC(C)C1CNC(=O)CN1Cc1cccc2nc(Nc3ccc(C(F)(F)F)cc3)nn12 (racemic) [Example 230, (±)-5-isopropyl-4-((2-(4-(trifluoromethyl)phenylamino)-[1,2,4]triazolo[1,5-a]pyridin-5-yl)methyl)piperazin-2-one] | 5.00 to 6.00 | –
Cc1n[nH]c2cc(Nc3nc4cccc(CN5CCCC(F)(F)C5)n4n3)ccc12 [Example 184, 5-((3,3-difluoropiperidin-1-yl)methyl)-N-(3-methyl-1H-indazol-6-yl)-[1,2,4]triazolo[1,5-a]pyridin-2-amine] | – | pIC50 [1]: 6.60 to 11.30
OC[C@@H]1CCCN1c1cccc2nc(Nc3ccc(C(F)(F)F)cc3)nn12 [Example 289, (S)-(1-(2-(4-(trifluoromethyl)phenylamino)-[1,2,4]triazolo[1,5-a]pyridin-5-yl)pyrrolidin-2-yl)methanol] | 5.00 to 6.00 | –
O=C1CN(Cc2cccc3nc(Nc4ccc(C(F)(F)F)cc4)nn23)CN1 [Example 301, 1-((2-(4-(trifluoromethyl)phenylamino)-[1,2,4]triazolo[1,5-a]pyridin-5-yl)methyl)imidazolidin-4-one] | 5.00 to 6.00 | –
CNC(=O)c1ccc(Nc2nc3cccc(CC4CCNC4)n3n2)cc1 (centres unmarked) [Example 267, N-methyl-4-(5-(pyrrolidin-3-ylmethyl)-[1,2,4]triazolo[1,5-a]pyridin-2-ylamino)benzamide] | 6.00 to 6.30 | –
OC1CCN(Cc2cccc3nc(Nc4ccc(C(F)(F)F)cc4)nn23)C1 (stereo in doubt) [Example 335, (R)-1-((2-(4-(trifluoromethyl)phenylamino)-[1,2,4]triazolo[1,5-a]pyridin-5-yl)methyl)pyrrolidin-3-ol] | 5.00 to 6.00 | –
O[C@H]1CCCN(Cc2cccc3nc(Nc4ccc(C(F)(F)F)cc4)nn23)C1 [Example 300, (S)-1-((2-(4-(trifluoromethyl)phenylamino)-[1,2,4]triazolo[1,5-a]pyridin-5-yl)methyl)piperidin-3-ol] | 5.00 to 6.00 | –
O[C@@H]1CCCN(c2cccc3nc(Nc4ccc(C(F)(F)F)cc4)nn23)C1 [Example 309, (R)-1-(2-(4-(trifluoromethyl)phenylamino)-[1,2,4]triazolo[1.5-a]pyridin-5-yl)piperidin-3-ol] | 6.00 to 6.30 | –
Cc1cc(Nc2nc3cccc(N[C@H]4CC[C@@H](O)CC4)n3n2)cc2c1CC(=O)N2C [Example 556] | – | pIC50 [2]: 6.60 to 11.30
OCC1CCN(Cc2cccc3nc(Nc4ccc(C(F)(F)F)cc4)nn23)C1 (stereo in doubt) [Example 323, (R)-(1-((2-(4-(trifluoromethyl)phenylamino)-[1,2,4]triazolo[1,5-a]pyridin-5-yl)methyl)pyrrolidin-3-yl)methanol] | 5.00 to 6.00 | –
c1ccc(-c2cccc3nc(Nc4ccc5c(NC6CCNCC6)n[nH]c5c4)nn23)cc1 [compound 23] | – | pIC50 [1]: 6.60 to 11.30
CNC(=O)c1ccc(Nc2nc3cccc(OC4CCNCC4)n3n2)cc1 [Example 284, N-methyl-4-(5-(piperidin-4-yloxy)-[1,2,4]triazolo[1,5-a]pyridin-2-ylamino)benzamide] | 5.00 to 6.00 | –
CC(C)(C)OC(=O)N1C(=O)C(C)(C)c2ccc(Nc3nc4cccc(N[C@H]5CC[C@@H](O)CC5)n4n3)cc21 [Example 545, cis-tert-butyl 6-(5-(4-hydroxycyclohexylamino)-[1,2,4]triazolo[1,5-a]pyridin-2-ylamino)-3,3-dimethyl-2-oxoindoline-1-carboxylate] | – | pIC50 [2]: 6.60 to 11.30
CC1(C)C(=O)Nc2cc(Nc3nc4cccc(N[C@@H]5CCCNC5)n4n3)ccc21 [compound 131, (R)-3,3-dimethyl-6-(5-(piperidin-3-ylamino)-[1,2,4]triazolo[1,5-a]pyridin-2-ylamino)indolin-2-one] | – | pIC50 [1]: 6.60 to 11.30
